This note sets out measurements from ChEMBL document CHEMBL3045013, “Suppression of pine wilt disease by an antibacterial agent, oxolinic acid” (2010).

Calls of active or inactive are those of the source. No cut-off for these calls is given here.

The subject of one assay is Serratia marcescens. The assay can be described thus: Antibacterial activity against Serratia marcescens subsp. marcescens KRICT4 at 1.6 mg/l after 24 hr. In kind it is functional, organism-based.
Another assay deals with Enterobacter asburiae. Nature of the assay: Antibacterial activity against Enterobacter asburiae KRICT3 at 1.6 mg/l after 24 hr. In kind it is functional, organism-based.
Assay [1] concerns Bursaphelenchus xylophilus. Nature of the assay: Nematicidal activity against Bursaphelenchus xylophilus assessed as mortality at 0.34 mg/l after 48 hr. Type of assay: functional.
The test system of assay [2] is Bursaphelenchus xylophilus. The assay can be described thus: Nematicidal activity against Bursaphelenchus xylophilus in pot-grown three-year-old trees of Pinus densiflora assessed as reduction of disease incidence at 3.6 mg/seedlings treated 7 days before inoculation measured after 1 month by measuring dead seedling under greenhouse condition relative to control. In kind it is functional. Further details: scale not given: the % may be the effect or the level left.

For assay [3], the system named is Bursaphelenchus xylophilus. Nature of the assay: Nematicidal activity against Bursaphelenchus xylophilus in pot-grown three-year-old trees of Pinus densiflora assessed as reduction of disease incidence at 2% treated 3 months before inoculation measured after 9 months by measuring dead trees relative to control. In kind it is functional. Further details: scale not given: the % may be the effect or the level left.

The test system of assay [4] is Bursaphelenchus xylophilus. The assay can be described thus: Nematicidal activity against Bursaphelenchus xylophilus in pot-grown three-year-old trees of Pinus densiflora assessed as reduction of disease incidence at 3.6 mg/seedlings treated 7 days before inoculation measured after 1 month by measuring dead seedling under greenhouse condition. In kind it is functional. Further details: scale not given: the % may be the effect or the level left.

The subject of assay [5] is Bursaphelenchus xylophilus. The assay can be described thus: Nematicidal activity against Bursaphelenchus xylophilus in pot-grown three-year-old trees of Pinus densiflora assessed as reduction of disease incidence at 2% treated 3 months before inoculation measured after 9 months by measuring dead trees. Type of assay: functional. Further details: scale not given: the % may be the effect or the level left.

The test system of assay [6] is Bursaphelenchus xylophilus. The assay can be described thus: Nematicidal activity against Bursaphelenchus xylophilus in pot-grown three-year-old trees of Pinus densiflora assessed as reduction of disease incidence at 10 mg/seedlings treated 7 days before inoculation measured after 1 month by measuring dead seedling under greenhouse condition. Type of assay: functional. Further details: scale not given: the % may be the effect or the level left.

The subject of assay [7] is Bursaphelenchus xylophilus. The assay can be described thus: Nematicidal activity against Bursaphelenchus xylophilus in pot-grown three-year-old trees of Pinus densiflora assessed as reduction of disease incidence at 10 mg/seedlings treated 7 days before inoculation measured after 1 month by measuring dead seedling under greenhouse condition relative to control. Type of assay: functional. Further details: scale not given: the % may be the effect or the level left.

In assay [8] the test system is Bursaphelenchus xylophilus. The assay can be described thus: Nematicidal activity against Bursaphelenchus xylophilus in pot-grown three-year-old trees of Pinus densiflora assessed as reduction of disease incidence at 30 mg/seedlings treated 7 days before inoculation measured after 1 month by measuring dead seedling under greenhouse condition. Further details: scale not given: the % may be the effect or the level left. Type of assay: functional.

Assay [9] deals with Bursaphelenchus xylophilus. The assay can be described thus: Nematicidal activity against Bursaphelenchus xylophilus assessed as mortality at 10 mg/l after 48 hr. In kind it is functional.
Assay [10] concerns Bursaphelenchus xylophilus. The assay can be described thus: Nematicidal activity against Bursaphelenchus xylophilus in pot-grown three-year-old trees of Pinus densiflora assessed as reduction of disease incidence at 10% treated 3 months before inoculation measured after 9 months by measuring dead trees. Type of assay: functional. Further details: scale not given: the % may be the effect or the level left.

Assay [11] concerns Bursaphelenchus xylophilus. The assay can be described thus: Nematicidal activity against Bursaphelenchus xylophilus in pot-grown three-year-old trees of Pinus densiflora assessed as reduction of disease incidence at 30 mg/seedlings treated 7 days before inoculation measured after 1 month by measuring dead seedling under greenhouse condition relative to control. Type of assay: functional. Further details: scale not given: the % may be the effect or the level left.

Assay [12] has as its system Bursaphelenchus xylophilus. Nature of the assay: Nematicidal activity against Bursaphelenchus xylophilus in pot-grown three-year-old trees of Pinus densiflora assessed as reduction of disease incidence at 10% treated 3 months before inoculation measured after 9 months by measuring dead trees relative to control. Type of assay: functional. Further details: scale not given: the % may be the effect or the level left.

Assay [13] deals with Peribacillus frigoritolerans. The assay can be described thus: Antibacterial activity against [Brevibacterium] frigoritolerans KRICT2 at 1.6 mg/l after 24 hr. In kind it is functional, organism-based.
In assay [14] the test system is Bursaphelenchus xylophilus. Nature of the assay: Nematicidal activity against Bursaphelenchus xylophilus in pot-grown three-year-old trees of Pinus densiflora assessed as reduction of disease incidence at 3 mg/seedlings treated 7 days before inoculation measured after 1 month by measuring dead seedling under greenhouse condition. In kind it is functional. Further details: scale not given: the % may be the effect or the level left.

The next assay deals with Ewingella americana. Nature of the assay: Antibacterial activity against Ewingella americana KRICT5 at 1.6 mg/l after 24 hr. In kind it is functional, organism-based.
Assay [15] deals with Bursaphelenchus xylophilus. The assay can be described thus: Nematicidal activity against Bursaphelenchus xylophilus in pot-grown three-year-old trees of Pinus densiflora assessed as reduction of disease incidence at 3 mg/seedlings treated 7 days before inoculation measured after 1 month by measuring dead seedling under greenhouse condition relative to control. In kind it is functional. Further details: scale not given: the % may be the effect or the level left.

Consider `CN(C)[C@@H]1C(O)=C(C(N)=O)C(=O)[C@@]2(O)C(O)=C3C(=O)c4c(O)cccc4[C@@](C)(O)[C@H]3[C@H](O)[C@@H]12`, for which the result in the assay with Serratia marcescens and in the assay with Enterobacter asburiae was Active.

For `CC[C@H](C)[C@H]1O[C@]2(C=C[C@@H]1C)C[C@@H]1C[C@@H](C/C=C(\C)[C@@H](O[C@H]3C[C@H](OC)[C@@H](O[C@H]4C[C@H](OC)[C@@H](O)[C@H](C)O4)[C@H](C)O3)[C@@H](C)/C=C/C=C3\CO[C@@H]4[C@H](O)C(C)=C[C@@H](C(=O)O1)[C@]34O)O2.CO[C@H]1C[C@H](O[C@H]2[C@H](C)O[C@@H](O[C@@H]3/C(C)=C/C[C@@H]4C[C@@H](C[C@]5(C=C[C@H](C)[C@@H](C(C)C)O5)O4)OC(=O)[C@@H]4C=C(C)[C@@H](O)[C@H]5OC/C(=C\C=C\[C@@H]3C)[C@]54O)C[C@@H]2OC)O[C@@H](C)[C@@H]1O` [ABAMECTIN], the Activity is 90% in assay [1]; 71% in assay [2]; 93% in assay [3]; 20% in assay [4]; 6.7% in [5].

On to `CCn1cc(C(=O)O)c(=O)c2cc3c(cc21)OCO3` [OXOLINIC ACID], for which the Activity amounted to 30% in assay [6]; 57% in [7]; 30% in assay [8]; 22% in [9]; 23.3% in assay [10]; 57% in [11]. Also, the Activity in assay [12] was found to be 74%; in [14], 20%; in assay [15], 71%. The outcome (in the assay on Serratia marcescens; in assay [13]; in the assay on Ewingella americana) was Active.
